The compounds below were run against His-tagged N-terminal ATP binding domain (amino acid residues 9-236) of HSP90α (Homo sapiens, UniProt P07900) (assay: HSP90 inhibitor binding potency: TRF competition binding assay). Settings: Table I; read-out: Hsp90 IC50 Range.
Protocol: HSP90 Inhibitor Binding Potency: TRF Binding Assay
In this example, the binding potency of HSP90 inhibitors as measured by a TRF binding assay is described.
TRF competition binding assays were performed to determine the binding potency (IC50 values) of HSP90 inhibitors. Purified His-tagged N-terminal ATP binding domain (amino acid residues 9-236) of HSP90α (HSP90α GeneID: 3320; mRNA Sequence NM_005348) was incubated for two hours at room temperature in binding buffer (50 mM HEPES, 6 mM MgCl2, 20 mM KCl and 0.1% BSA) with biotinylated radicicol and progressively higher concentrations of the competing compounds. A fraction of the mixture was transferred to capture plates (coated with streptavidin) and incubated for one hour at room temperature. After washing with DELFIA wash buffer, europium-labeled anti-his antibody was added and incubated for two hours at room temperature, followed by washing with DELFIA buffer. DELFIA enhancement solution was then added. After gentle shaking for 10 minutes, the plates were read in VICTOR for europium counts.

Row | IC50 [µM] | Structure (SMILES)
1 | < 1 | Cc1nc(N)nc2c1C(=O)CC(c1ccccc1-c1ccc[nH]c1=O)C2 (centres unmarked) [Compound 169, 2-amino-4-methyl-7-[2-(2-oxo-1,2-dihydropyridin-3-yl)phenyl]-7,8-dihydroquinazolin-5(6H)-one]
2 | 1 to 10 | CC(=O)c1cccc(-c2ccccc2C2CC(=O)c3c(C)nc(N)nc3C2)n1 (centres unmarked) [Compound 92, 7-[2-(6-acetylpyridin-2-yl)phenyl]-2-amino-4-methyl-7,8-dihydroquinazolin-5(6H)-one]
3 | < 1 | Cc1nc(N)nc2c1C(=O)CC(c1c(OCCN3CCCCC3)cccc1-c1cccnc1F)C2 (centres unmarked) [Compound 155, 2-amino-7-[2-(2-fluoro-pyridin-3-yl)-6-(2-piperidin-1-yl-ethoxy)-phenyl]-4-methyl-7,8-dihydro-6H-quinazolin-5-one]
4 | 1 to 10 | Cc1nc(N)nc2c1C(=O)CC(c1ccccc1-c1cccc3c1NC(=O)C3)C2 (centres unmarked) [Compound 131, 2-amino-4-methyl-7-[2-(2-oxo-2,3-dihydro-1H-indol-7-yl)phenyl]-7,8-dihydroquinazolin-5(6H)-one]
5 | < 1 | COc1ccc(-c2cccnc2F)c(C2CC(=O)c3c(C)nc(N)nc3C2)c1 (centres unmarked) [Compound 98, 2-amino-7-[2-(2-fluoropyridin-3-yl)-5-methoxyphenyl]-4-methyl-7,8-dihydroquinazolin-5(6H)-one]
6 | < 1 | Cc1nc(N)nc2c1C(=O)CC(c1ccccc1N1CCOCC1)C2 (centres unmarked) [Compound 13, 2-amino-4-methyl-7-(2-morpholin-4-yl-phenyl)-7,8-dihydro-6H-quinazolin-5-one]
7 | < 1 | Cc1nc(N)nc2c1C(=O)CC(c1ccccc1-c1ccccc1)C2 (centres unmarked) [Compound 41, 2-amino-7-(1,1′-biphenyl-2-yl)-4-methyl-7,8-dihydroquinazolin-5(6H)-one]
8 | < 1 | Cc1ccnc(-c2ccccc2C2CC(=O)c3c(C)nc(N)nc3C2)c1 (centres unmarked) [Compound 118, 2-amino-4-methyl-7-[2-(4-methylpyridin-2-yl)phenyl]-7,8-dihydroquinazolin-5(6H)-one]
9 | < 1 | Cc1nc(N)nc2c1C(=O)CC(c1ccccc1-c1ccccc1OC(F)(F)F)C2 (centres unmarked) [Compound 111, 2-amino-4-methyl-7-[2′-(trifluoromethoxy)-1,1′-biphenyl-2-yl]-7,8-dihydroquinazolin-5(6H)-one]
10 | < 1 | Cc1nc(N)nc2c1C(=O)CC(c1ccccc1N1CCCCC1)C2 (centres unmarked) [Compound 12, 2-amino-4-methyl-7-(2-piperidin-1-yl-phenyl)-7,8-dihydro-6H-quinazolin-5-one]
11 | < 1 | COc1ccc(F)cc1-c1ccccc1C1CC(=O)c2c(C)nc(N)nc2C1 (centres unmarked) [Compound 96, 2-amino-7-(5′-fluoro-2′-methoxy-1,1′-biphenyl-2-yl)-4-methyl-7,8-dihydroquinazolin-5(6H)-one]
12 | 1 to 10 | COc1cccc(Br)c1C1CC(=O)c2c(C)nc(N)nc2C1 (centres unmarked) [Compound 18, 2-amino-7-(2-bromo-6-methoxy-phenyl)-4-methyl-7,8-dihydro-6H-quinazolin-5-one]
13 | > 10 | Cc1nc(N)nc2c1C(=O)CC(c1cccc(-c3cccnc3F)c1)C2 (centres unmarked) [Compound 54]
14 | 1 to 10 | Cc1nc(N)nc2c1C(=O)CC(c1cccc3ccccc13)C2 (centres unmarked) [Compound 159, 2-amino-4-methyl-7-(1-naphthyl)-7,8-dihydroquinazolin-5(6H)-one]
15 | < 1 | Cc1nc(N)nc2c1C(=O)CC(c1ccccc1Cc1ccccc1)C2 (centres unmarked) [Compound 14, 2-amino-7-(2-benzyl-phenyl)-4-methyl-7,8-dihydro-6H-quinazolin-5-one]
16 | 1 to 10 | Cc1nc(N)nc2c1C(=O)CC(c1ccccc1OCCN1CCN(C)CC1)C2 (centres unmarked) [Compound 152, 2-amino-4-methyl-7-{2-[2-(4-methyl-piperazin-1-yl)-ethoxy]-phenyl}-7,8-dihydro-6H-quinazolin-5-one]
17 | < 1 | COc1ncccc1-c1ccccc1C1CC(=O)c2c(C)nc(N)nc2C1 (centres unmarked) [Compound 70, 2-amino-7-[2-(2-methoxypyridin-3-yl)phenyl]-4-methyl-7,8-dihydroquinazolin-5(6H)-one]
18 | 1 to 10 | Cc1nc(N)nc2c1C(=O)CC(c1ccccc1-c1cnn(C)c1)C2 (centres unmarked) [Compound 43, 2-amino-4-methyl-7-[2-(1-methyl-1H-pyrazol-4-yl)phenyl]-7,8-dihydroquinazolin-5(6H)-one]
19 | < 1 | Cc1nc(N)nc2c1C(=O)CC(c1ccccc1-c1cccc(F)c1F)C2 (centres unmarked) [Compound 83, 2-amino-7-(2′,3′-difluoro-1,1′-biphenyl-2-yl)-4-methyl-7,8-dihydroquinazolin-5(6H)-one]

Same assay, conditions: Table II; read-out: Hsp90 IC50 Range

Row | IC50 [µM] | Structure (SMILES)
20 | < 1 | CCOc1ncncc1-c1cc(F)ccc1C1CC(=O)c2c(C)nc(N)nc2C1 (centres unmarked) [Compound 282, 2-amino-7-[2-(4-ethoxy-pyrimidin-5-yl)-4-fluoro-phenyl]-4-methyl-7,8-dihydro-6H-quinazolin-5-one]
21 | < 1 | C#Cc1cccc(-n2ccnc2C2CC(=O)c3c(C)nc(N)nc3C2)c1 (centres unmarked) [Compound 197, 2-amino-7-[1-(3-ethynyl-phenyl)-1H-imidazol-2-yl]-4-methyl-7,8-dihydro-6H-quinazolin-5-one]
22 | < 1 | COc1ccc(-c2cccc(OC)n2)c(C2CC(=O)c3c(C)nc(N)nc3C2)c1 (centres unmarked) [Compound 252, 2-amino-7-[5-methoxy-2-(6-methoxy-pyridin-2-yl)-phenyl]-4-methyl-7,8-dihydro-6H-quinazolin-5-one]
23 | < 1 | COc1cncc(-c2scnc2C2CC(=O)c3c(C)nc(N)nc3C2)n1 (centres unmarked) [Compound 303, 2-amino-7-[5-(6-methoxy-pyrazin-2-yl)-thiazol-4-yl]-4-methyl-7,8-dihydro-6H-quinazolin-5-one]
24 | < 1 | Cc1nc(N)nc2c1C(=O)CC(c1cccc(F)c1-c1cccnc1F)C2 (centres unmarked) [Compound 222, 2-amino-7-[3-fluoro-2-(2-fluoro-pyridin-3-yl)-phenyl]-4-methyl-7,8-dihydro-6H-quinazolin-5-one]
25 | < 1 | Cc1nc(N)nc2c1C(=O)C(C)C(c1ccccc1)C2 (centres unmarked) [Compound 248, 2-amino-4,6-dimethyl-7-phenyl-7,8-dihydro-6H-quinazolin-5-one]
26 | > 10 | CCOc1cccc(-n2ccnc2C2CC(=O)c3c(C)nc(N)nc3C2)c1 (centres unmarked) [Compound 191, 2-amino-7-[1-(3-ethoxy-phenyl)-1H-imidazol-2-yl]-4-methyl-7,8-dihydro-6H-quinazolin-5-one]
27 | < 1 | COc1nccnc1-c1cc(F)ccc1C1CC(=O)c2c(C)nc(N)nc2C1 (centres unmarked) [Compound 281, 2-amino-7-[4-fluoro-2-(3-methoxy-pyrazin-2-yl)-phenyl]-4-methyl-7,8-dihydro-6H-quinazolin-5-one]
28 | < 1 | Cc1nc(N)nc2c1C(=O)CC(c1ccc(F)cc1OCC1CCCC1)C2 (centres unmarked) [Compound 263, 2-amino-7-(2-cyclopentylmethoxy-4-fluoro-phenyl)-4-methyl-7,8-dihydro-6H-quinazolin-5-one]
29 | < 1 | COc1ccc(F)c(-c2cc(F)ccc2[C@@H]2CC(=O)c3c(C)nc(N)nc3C2)n1 [Compound 313, (S)-2-amino-7-[4-fluoro-2-(3-fluoro-6-methoxy-pyridin-2-yl)-phenyl]-4-methyl-7,8-dihydro-6H-quinazolin-5-one]
30 | < 1 | Cc1nc(N)nc2c1C(=O)CC(c1ccc(F)cc1-c1cccc(Cl)n1)C2 (centres unmarked) [Compound 223, 2-amino-7-[2-(6-chloro-pyridin-2-yl)-4-fluoro-phenyl]-4-methyl-7,8-dihydro-6H-quinazolin-5-one]
31 | < 1 | COc1ncccc1-n1ccnc1C1CC(=O)c2c(C)nc(N)nc2C1 (centres unmarked) [Compound 202, 2-amino-7-[1-(2-methoxy-pyridin-3-yl)-1H-imidazol-2-yl]-4-methyl-7,8-dihydro-6H-quinazolin-5-one]
32 | < 1 | COc1ccc(-c2cncc(OC)n2)c(C2CC(=O)c3c(C)nc(N)nc3C2)c1 (centres unmarked) [Compound 254, 2-amino-7-[5-methoxy-2-(6-methoxy-pyrazin-2-yl)-phenyl]-4-methyl-7,8-dihydro-6H-quinazolin-5-one]
33 | < 1 | COc1cccc(-c2ccc(F)cc2C2CC(=O)c3c(C)nc(N)nc3C2)n1 (centres unmarked) [Compound 283, 2-amino-7-[5-fluoro-2-(6-methoxy-pyridin-2-yl)-phenyl]-4-methyl-7,8-dihydro-6H-quinazolin-5-one]
34 | 1 to 10 | CCc1cc(-n2ccnc2C2CC(=O)c3c(C)nc(N)nc3C2)ccc1C (centres unmarked) [Compound 333, 2-amino-7-[1-(3-ethyl-4-methyl-phenyl)-1H-imidazol-2-yl]-4-methyl-7,8-dihydro-6H-quinazolin-5-one]
35 | < 1 | COc1nc(-c2cc(F)ccc2C2CC(=O)c3c(C)nc(N)nc3C2)ncc1C (centres unmarked) [Compound 259, 2-amino-7-[4-fluoro-2-(4-methoxy-5-methyl-pyrimidin-2-yl)-phenyl]-4-methyl-7,8-dihydro-6H-quinazolin-5-one]
36 | 1 to 10 | COc1ccc(F)c(-n2ccnc2C2CC(=O)c3c(C)nc(N)nc3C2)c1 (centres unmarked) [Compound 196, 2-amino-7-[1-(2-fluoro-5-methoxy-phenyl)-1H-imidazol-2-yl]-4-methyl-7,8-dihydro-6H-quinazolin-5-one]
37 | < 1 | COc1cccc(-c2cc(F)ccc2[C@@H]2CC(=O)c3c(C)nc(N)nc3C2)n1 [Compound 261, (S)-2-amino-7-[4-fluoro-2-(6-methoxy-pyridin-2-yl)-phenyl]-4-methyl-7,8-dihydro-6H-quinazolin-5-one]

Row | Structure (SMILES) | IC50 [µM]
38 | Cc1nc(N)nc2c1C(=O)CC(c1ccc(F)cc1OCC(C)C)C2 (centres unmarked) [Compound 266, 2-amino-7-(4-fluoro-2-isobutoxy-phenyl)-4-methyl-7,8-dihydro-6H-quinazolin-5-one] | < 1

Reference: US20070027150A1 (priority 2005, published 2007)
